The text below walks through data of patent US7332513B2, “Thiazole-based nitric oxide donors having acyl substituent(s) and uses thereof” (priority 2004, dated 2008).

Entries after “also recorded” stand apart in the source; their conditions may differ.

Test [1] concerns isolated rat aorta. The experiment in a line: In vitro induction of tolerance to NO releasing compounds (vasorelaxation of pre-exposed aortic rings, incl. cross-tolerance). The class given is cell-based. The settings on record: for tolerance induction after pre-treatment with the same compound: rat aorta pre-treated with epinephrine and then 0.44 mM of the compound. Here is the method:
Aortic rings were prepared as described hereinabove, and were exposed to 0.44 mM GTN (vehicle was water:ethanol:propyleneglycol at proportional ratio of 1:1:1) for 1 hour before CCRC construction, to thereby induce tolerance to nitroglycerine. At the end of the tolerance induction period, rings were thrice washed with the path buffer (Krebs-bicrbonate) every 15 minutes for the following hour and then CCRC for vasorelaxation on GTN-induced tolerance rings were constructed for GTN (pretreated versus untreated rings, FIG. 15), in order to verify the ability to induce and measure GTN tolerance induction in vitro
Attempted induction of tolerance to the NO-donating compounds of the present invention was performed under the same conditions as for GTN. Thus, in an exemplary experiment, rings were exposed to 0.44 mM solution of Pet-3 in the attempt to induce tolerance for Pet-3. CCRC were then measured for the vasorelaxing effect of Pet-3 on a group of rings which were pre-exposed to Pet-3 as to induce tolerance to Pet-3, and for an untreated control group. The above protocol was repeated with Pet-2, Pet-7, Pet-8, Pet-12, Pet-24, Pet-43, Pet-149 and Pet-152.
Cross-tolerance studies were conducted using the same technique described above for measuring vasorelaxation of aortic rings from rats. Two groups of aortic rings samples were pre-treated with GTN, then one group was measured for vasorelaxation by GTN and the second group for vasorelaxation by Pet-12, an exemplary NO-donor according to the present invention. For the opposite cross-tolerance studies, two groups of aortic rings samples were pre-treated with Pet-12, then one group was measured for vasorelaxation by GTN and the second group for vasorelaxation by Pet-12.

Test [2] deals with anesthetized hypertensive Sprague-Dawley male rats. The test is described as follows: Hypotensive effects: mean arterial pressure after iv bolus in phenylephrine-treated rats. The class given is in vivo, rat. An excerpt:
These techniques were also used to detect tolerance induction by the NO-donors of the present invention and by GTN. For c-GMP levels and tolerance development, the rat's thoracic aorta was isolated after exposure to the tested compound in vivo, and measured as described above in the in vitro assays.
Mean arterial pressure (MAP) was monitored and determined during bolus infusion of Pet-2, Pet-3, Pet-7, Pet-8, Pet-12 and Pet-13. Briefly, polyethylene catheters (PE50) were inserted into the carotid artery and into the jugular vein of anesthetized hypertensive Sprague-Dawley male rats (200-300 grams). A blood pressure recorder was placed within the carotid artery. Phenylephrine (0.1 mg) was then injected and the mean arterial blood pressure (MABP) was monitored continuously until a stable baseline was reached. The hypotensive effects of intravenous (iv) bolus doses (0.1 mg of each tested compound) administered intravenously at the jugular vein in minimal volume of vehicle (0.2 ml per dose) were evaluated. Five minutes were allowed between each dose, during which the maximal decrease in MAP was recorded and a dose-response graph comparing the hypotensive effect of the compounds was constructed.

Test [3] deals with cGMP in thoracic aorta of rats treated in vivo. The experiment in a line: Induction of in vivo nitrate tolerance (16 hour infusion, then cGMP in isolated aorta). The conditions noted are these: rats infused in vivo 16 hours, aorta re-exposed to the compound. Further details: species or system rat. On the procedure:
Male Sprague Dawley rats (220 to 250 grams) were housed under constant temperature and humidity conditions. Light was maintained at a 12/12 light dark cycle. Except for 12 hours before the experiment, when food fasting was initiated, all rats had free access to standard rat pellet diet and tap water. The animals were anesthetized by intraperitoneal injection of ketamine and xylazine combination (50 and 10 milligram per kilogram, respectively). […] The catheters were filled with normal saline solution containing 1000 IU/ml of heparin and plugged with a metal pin. Catheters were externalized to the back of the neck region and secured by a polyester felt disk.
After implantation, the rats were individually housed until they regained their preoperative weight and appeared healthy (3 to 4 days post-operation). At this time point (day 0), an osmotic mini-pump (Alza Corp., Palo Alto, Calif.) delivering constant volume (10 μl/hour) of vehicle or drug was connected to one of the intravenous catheters.
For inducing tolerance to the tested NO-donor according to the present invention, the animals received 200 μg/hour of the tested compound for 16 hours (short-term-induced tolerance). A similar number of animals were processed by the same surgical procedure and received the vehicle alone (10 μl/hour of a solution consisting of 30% ethanol and 30% propylene glycol in sterile distilled water for injection).
At the end of the infusion periods used for the development of tolerance (16 hour), the rats were anesthetized as described above, the two catheters were externalized and the delivering catheters were disconnected from the mini-pump. The abdomen was opened by midline incision and the thoracic aorta were isolated, washed and cleaned from the surrounding tissues. Strips of the treated aortas were pooled in chambers containing Krebs-Hanseliet buffer (10 ml), and exposed to 1 μM of the tested NO-donor (final concentration) for 120 seconds. The tissues were quickly collected and frozen in liquid nitrogen for cGMP measurement, described hereinabove.

In test [4] the test system is c-GMP in slices of thoracic aorta of rats. The experiment in a line: Cyclic-GMP measurement in aortic rat tissue (radioimmunoassay). The class given is cell-based. The settings on record: for cGMP Post-infusion: rat aorta, post-infusion (repeated treatment). Here is the method:
GTN (10^−6 M) was added to the chamber and, 1 minute after exposure to the drug, rings (usually 3-5) were taken, wrapped with aluminum foil and immediately frozen in liquid nitrogen for storage. Control sample group was treated with the vehicle solution only. At the time of analysis, rings were thawed, blotted over a dry gauzed and weighted. A known weight of tissue was homogenized in 2 ml ice-cold modified Hank's balanced salt solution containing (in gram/liter) NaCl 8; KCl 0.4; glucose 1; KH2PO4 0.06; Na2HPO4 0.047; Phenol red 0.017 and further containing 25 mM EDTA (disodium salt). The homogenate was centrifuged at 4000 g (force units) for 10 minutes at 2-4° C. and the supernatant was thereafter transferred into fresh pre-cooled test tube containing 1 ml of acetonitrile. The tubes were vortex mixed for a few seconds and subsequently centrifuged at 4000 g for 5 minutes at 2-4° C., to remove the precipitated protein. Each supernatant was transferred into a clean test tube and evaporated to dryness under a stream of nitrogen at 55° C. The dry residue was reconstituted with 10 volumes of Tris-EDTA buffer pH 7.5 (0.05 M Tris containing 4 mM EDTA). Aliquots of 100 μl of the reconstituted solution in duplicate were used for c-GMP measurements using Amersham RIA kit, as is described in Haj-Yehia & Benet [Pharmacology, 1995, 273, 1, pp. 94-100]. Standard curves were plotted with six concentrations (0, 0.5, 1, 2, 4 and 8 pmoles of c-GMP per tube).
The NO-tolerance effect of GTN and NO-donor compounds according to the present invention was measured by following the production of c-GMP in slices of thoracic aorta of rats. Thus, the production of c-GMP was measured as described in the methods section above for the reference NO-donor compound GTN, and for the NO-donors of the present invention Pet-2, Pet-3, Pet-7, Pet-8, Pet-10, Pet-12, Pet-24, Pet-59, Pet-147, Pet-149, Pet-152, Pet-154 and Pet-155.

Test [5] has as its system isolated rat aorta. The test is described as follows: In vitro vasorelaxation, cumulative concentration-response curves on rat aortic rings contracted with epinephrine. The class given is cell-based. The settings on record: isolated rat aorta pre-treated with 1 μM epinephrine. An excerpt:
Male Sprague Dawley rats were anaesthetized using intraperitoneal injection of ketamine and xylazine (50 and 10 milligram per kilogram, respectively) and the thoracic aorta, the large upper portion of the descending aorta, starting at the caudal border of the chest bone, was removed thereafter, while carefully removing the paraadventetial tissue surrounding the vessel. Aortae were cut into rings of 4-5 millimeters and mounted onto the tissue path. The path buffer (Krebs-bicrbonate) was constantly gassed with carbogen and maintained at 37° C. The rings were preloaded under 2 g tension and equilibrated for 90 minutes, while refreshing the buffer every 15 minutes. After stabilization, the rings were contracted with epinephrine (1 μM). Cumulative Concentration-Response Curves (CCRC) were measured for the vasorelaxing effect induced by adding various concentrations, ranging from 10^−10 M to 10^−5 M of Pet-2, Pet-3, Pet-7, Pet-8, Pet-12, Pet-24, Pet-43, Pet-59, Pet-147, Pet-152 and Pet-154, and glyceryltrinitrate (GTN), according to the procedure described in Feelich et al., Molecular Pharmacology, 56:243-253 (1999). The vehicle, which was used for this experiment was water:ethanol:propyleneglycol at proportional ratio of 1:1:1.
The vasorelaxing effect of the thiazole-derived NO-donors according to the present invention was measured on slices of thoracic aorta of rats contracted with epinephrine, as described hereinabove.
The obtained results for Pet-2, Pet-3, Pet-7, Pet-8, Pet-12, Pet-24, Pet-43, Pet-59, Pet-147, Pet-152 and Pet-154 are presented in FIGS. 2-14, and are summarized in Table 3 below.

Turning to `O=[N+]([O-])OCC(CO[N+](=O)[O-])O[N+](=O)[O-]` [GTN, glyceryl trinitrate, reference compound], the “tolerance induction after pre-treatment with the same compound” value in test [1] is recorded as “tolerance induced”. For the same molecule, the “effect on MAP following successive administrations” value in test [2] (iv bolus doses, rats) is “attenuation”. The “tolerance in vivo: cGMP level in aorta following repeated treatment” value (from here on “tolerance in vivo: cGMP level”) in test [3] was “tolerance inducing effect; also recorded: decreased”. Further, the “cGMP Post-infusion” value in test [4] is 45 ± 12^¥ pmol/g tissue. In test [4] (slices of thoracic aorta of rats), the “c-GMP level following a repeated treatment” value is “significantly reduced”.
With `CCc1nc(C)c(CCO[N+](=O)[O-])s1` [Pet-2, 2-Ethyl-4-methyl-5-(2-nitrooxy-ethyl)-thiazole], the “vasorelaxation effect as compared with glyceryltrinitrate (words)” value in test [5] is listed as “superior vasorelaxation effect”. Besides, the “tolerance in vivo: cGMP level” value in test [3] was “absence of tolerance induction; also recorded: absence of tolerance effect; also recorded: remained substantially unchanged”. The “cGMP Post-infusion” value in test [4] was 140 ± 13 pmol/g tissue.
With `Cc1nc(-c2cccnc2)sc1CCO[N+](=O)[O-]` [Pet-12, 3-[4-Methyl-5-(2-nitrooxy-ethyl)-thiazole-2-yl]-pyridine], in test [1], the “tolerance induction after pre-treatment with the same compound” value is given as “absence of tolerance induction”. Further, the “vasorelaxation in rings pre-treated with GTN (cross-tolerance)” value in test [1] (rat aorta pre-treated with epinephrine and then with GTN) is “absence of tolerance induction effect; also recorded: no effect on the vasorelaxation capacity”. Also, the “vasorelaxation in rings pre-treated with Pet-12 (cross-tolerance)” value in test [1] (rat aorta pre-treated with epinephrine and then with Pet-12) is listed as “absence of tolerance induction effect; also recorded: does not evoke tolerance to itself not to GTN”. Also, in test [2] (rats pre-treated in vivo with phenylephrine, iv bolus 10-100 micrograms), the “hypotensive / vasorelaxation effect on heightened mean arterial blood pressure” value was “vasorelaxation effect”. Also, the “tolerance in vivo: cGMP level” value in test [3] is “absence of tolerance induction; also recorded: absence of tolerance effect; also recorded: lack of tolerance induction”. The “cGMP Post-infusion” value in test [4] amounted to 112 ± 12 pmol/g tissue.
